The assay addresses Factor D (Homo sapiens (Human), UniProt P00746). Put plainly: Factor D esterolytic assay (Z-Lys-SBzl substrate, DTNB, 405 nm). It counts as biochemical. The following applies: Z-Lys-SBzl 1.29 mM, pH 7.5, 10% DMSO, tested a minimum of three times, read-out: Measured Ki (IC50) Value for Compounds: IC50. How it is done:
The IC50 value of a compound (i.e., the concentration of the compound that inhibits 50% of the enzymatic activity) was calculated according to the procedure reported in U.S. Pat. No. 6,653,340 B1, e.g., column 74 (incorporated by reference).
Specifically, the compounds were dissolved in a stock solution of DMSO at 10.0 or 100 mM. A portion of this stock solution was added to assay buffer in a final volume of 50 μL. Controls included buffer alone and enzyme solutions to which DMSO was added. Substrate was added to the reaction wells immediately or after incubation at room temperature. The reaction rates were measured spectrophotometrically by the generation of product at 405 nm for 600 sec. Background absorbance at 690 nm was measured and subtracted from the absorbance at 405 nm for each well.
The reaction rate for enzyme alone was compared to the rate of enzyme in the presence of inhibitor and the percent inhibition was calculated as shown below: Percent Inhibition=[Rate without inhibitor−Rate with inhibitor)/(Rate without inhibitor)]×100 Factor D Esterolytic Assay:
An established esterolytic assay for the measurement of Factor D activity and inhibition of Factor D activity was used (Kam, C. M.; McRae, B. J.; Harper, J. W.; Niemann, M. A.; Volanakis, J. E.; Powers, J. C. Human complement proteins D, C2, and B Active site mapping with peptide thioester substrates. J Biol. Chem. 1987, 262, 3444-3451). For this assay Z-Lys-SBzl, 1.29 mM (Kim, S.; Narayana, S. V. L; Volanakis, J. E. Mutational analysis of the substrate binding site of human complement Factor D. Biochemistry. 1994, 33, 14393-14399.) was used as the substrate for Factor D ([…]). Hydrolysis of this compound by Factor D liberated a free sulfhydryl group which is then reacted with 5,5′-dithiobis(2nitrobenzoic acid) producing an intense yellow color (Habeeb, A. F. S. A. Reaction of protein sulfhydryl groups with Ellman's Reagent. Methods in Enzymol. 1976, 25, 457-464). The assays were performed in 96 well microtiter plates and rates of hydrolysis were monitored at 405 nm on a Biotek Synergy H1 plate reader. Hydrolysis rates were reported as change in mOD/min. The assay was conducted in 100 mM HEPES, 500 mM NaCl, pH 7.5 containing 10% DMSO in a final volume of 50 μL per well.
An IC50, a compound concentration which inhibits 50% of the enzymatic activity, was calculated. Compounds in the examples were tested a minimum of three times.

pIC50: −log10 of the molar value.

Chain of Factor D (P00746 26-253): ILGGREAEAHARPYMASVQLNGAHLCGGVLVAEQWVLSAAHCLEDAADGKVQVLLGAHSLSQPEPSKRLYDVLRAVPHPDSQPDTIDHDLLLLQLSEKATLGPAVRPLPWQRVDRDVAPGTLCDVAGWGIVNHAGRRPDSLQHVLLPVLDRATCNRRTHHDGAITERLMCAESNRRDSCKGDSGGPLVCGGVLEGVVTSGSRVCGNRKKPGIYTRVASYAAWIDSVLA

A word on the pIC50: it is the IC50 on a negative log10 scale, so that one unit is a factor of ten. As to `CC(=O)c1ccc(CC(=O)O)c(OCc2cc(-c3cccc(CN)c3)c3occ(C(F)(F)F)c3c2)c1` [Compound 506e, 2-(4-acetyl-2-((7-(3-(aminomethyl)phenyl)-3-(trifluoromethyl)benzofuran-5-yl)methoxy)phenyl)acetic acid], the negative logarithm of the IC50 (pIC50) is more than 6.00.

With `NCc1cccc(-c2cc(COc3ccccc3CC(=O)O)cn3ccnc23)c1` [Compound 102g, 2-(2-((8-(3-(aminomethyl)phenyl)imidazo[1,2-a]pyridin-6-yl)methoxy)phenyl)acetic acid], the negative logarithm of the IC50 (pIC50) is more than 6.00.

For the compound `NCc1nccc(-c2cc(COc3c(F)cccc3CC(=O)O)cc3ccoc23)c1F` [Compound 510d, 2-(2-((7-(2-(aminomethyl)-3-fluoropyridin-4-yl)benzofuran-5-yl)methoxy)-3-fluorophenyl)acetic acid], the pIC50 was more than 6.00.

`NCc1cccc(-c2cc(C(=O)Nc3ccccc3CC(=O)O)cc3nn(CC4CC4)cc23)c1` [Compound 11b, 2-(2-(4-(3-(aminomethyl)phenyl)-2-(cyclopropylmethyl)-2H-indazole-6-carboxamido)phenyl)acetic acid]: the pIC50 is more than 6.00.

`NCc1cccc(-c2nc(C(=O)Nc3ccoc3CC(=O)O)c3cccn3n2)c1F` [Compound 143g, 2-(3-(2-(3-(aminomethyl)-2-fluorophenyl)pyrrolo[2,1-f][1,2,4]triazine-4-carboxamido)furan-2-yl)acetic acid]: the pIC50 is less than 5.00.

On to `NCc1cccc(-c2cc(NC(=O)c3ccccc3N)cc3ccoc23)c1` [Compound 216d, 2-amino-N-(7-(3-(aminomethyl)phenyl)benzofuran-5-yl)benzamide], for which the pIC50 is less than 5.00.

As to `Cc1nc2cc(C(=O)Nc3ccccc3CC(=O)O)cc(-c3cccc(CN)c3)c2n1C` [Compound 30d, 2-(2-(7-(3-(aminomethyl)phenyl)-1,2-dimethyl-1H-benzo[d]imidazole-5-carboxamido)phenyl)acetic acid], the pIC50 was less than 5.00.

`NCc1cccc(-c2cc(COc3ccccc3CC(=O)O)cc3cc(C4CC4)oc23)c1` [Compound 55g, 2-(2-((7-(3-(aminomethyl)phenyl)-2-cyclopropylbenzofuran-5-yl)methoxy)phenyl)acetic acid]: the pIC50 is more than 6.00.

Regarding `COCc1cc2cc(COc3cc(C)ccc3CC(=O)O)cc(-c3ccnc(CN)c3F)c2o1` [Compound 453d, 2-(2-((7-(2-(aminomethyl)-3-fluoropyridin-4-yl)-2-(methoxymethyl)benzofuran-5-yl)methoxy)-4-methylphenyl)acetic acid], the pIC50 is more than 6.00.

On to `COCc1cc2cc(COc3ccc(F)cc3CC(=O)O)cc(-c3ccnc(CN)c3)c2o1` [Compound 529b, 2-(2-((7-(2-(aminomethyl)pyridin-4-yl)-2-(methoxymethyl)benzofuran-5-yl)methoxy)-5-fluorophenyl)acetic acid], for which the pIC50 was more than 6.00.

Turning to `CCOC(=O)Cc1ccccc1NC(=O)c1cc(-c2cccc(CN)c2)c2cn(CC3CC3)nc2c1` [Compound 11a, ethyl 2-(2-(4-(3-(aminomethyl)phenyl)-2-(cyclopropylmethyl)-2H-indazole-6-carboxamido)phenyl)acetate], the negative logarithm of the IC50 (pIC50) is less than 5.00.

Consider `Cc1ccc(CC(=O)O)c(OCc2cc(-c3cccc(CN)c3)c3oc(C)cc3c2)c1` [Compound 423c, 2-(2-((7-(3-(aminomethyl)phenyl)-2-methylbenzofuran-5-yl)methoxy)-4-methylphenyl)acetic acid], for which the pIC50 was more than 6.00.

On to `NCc1ccccc1-c1cc(COc2ccccc2CC(=O)O)cc2ccoc12` [Compound 243d, 2-(2-((7-(2-(aminomethyl)phenyl)benzofuran-5-yl)methoxy)phenyl)acetic acid], for which the negative logarithm of the IC50 (pIC50) was less than 5.00.

For `COc1ccc(CC(=O)O)c(OCc2cc(-c3ccnc(CN)c3F)c3occc3c2)c1` [Compound 464d, 2-(2-((7-(2-(aminomethyl)-3-fluoropyridin-4-yl)benzofuran-5-yl)methoxy)-4-methoxyphenyl)acetic acid], the pIC50 is more than 6.00.

In the case of `NCc1nccc(-c2cc(COc3cc(-c4ccccc4)ccc3CC(=O)O)cc3ccoc23)c1F` [Compound 394c, 2-(3-((7-(2-(aminomethyl)-3-fluoropyridin-4-yl)benzofuran-5-yl)methoxy)-[1,1′-biphenyl]-4-yl)acetic acid], the pIC50 is more than 6.00.

Turning to `NCc1cccc(-c2cc(COc3ccccc3CC(=O)O)cc3occc23)c1F` [Compound 122b, 2-(2-((4-(3-(aminomethyl)-2-fluorophenyl)benzofuran-6-yl)methoxy)phenyl)acetic acid], the pIC50 is more than 6.00.

Consider `NCc1cccc(-c2cc(COc3ccc(F)cc3CC(=O)O)cc3ccoc23)c1` [Compound 205d, 2-(2-((7-(3-(aminomethyl)phenyl)benzofuran-5-yl)methoxy)-5-fluorophenyl)acetic acid], for which the pIC50 was more than 6.00.

Turning to `NCc1cccc(-c2nc(C(=O)Nc3ccccc3CC(=O)O)c3cccn3n2)c1F` [Compound 34f, 2-(2-(2-(3-(aminomethyl)-2-fluorophenyl)pyrrolo[2,1-f][1,2,4]triazine-4-carboxamido)phenyl)acetic acid], the negative logarithm of the IC50 (pIC50) is more than 6.00.

`NCc1cccc(-c2cc(COc3ccccc3CC(=O)O)cc3cc(COCc4cccnc4)oc23)c1` [Compound 302f, 2-(2-((7-(3-(aminomethyl)phenyl)-2-((pyridin-3-ylmethoxy)methyl)benzofuran-5-yl)methoxy)phenyl)acetic acid]: the pIC50 was more than 6.00.

As for `NCc1cccc(-c2cc(COc3cc(-c4ccc(C(=O)O)s4)ccc3CC(=O)O)cc3ccoc23)c1` [Compound 325a, 5-(3-((7-(3-(aminomethyl)phenyl)benzofuran-5-yl)methoxy)-4-(carboxymethyl)phenyl)thiophene-2-carboxylic acid], the pIC50 is more than 6.00.

For the compound `NCc1cccc(-c2cc(C(=O)N[C@@H]3CCC[C@H]3C(=O)NCc3cccc(Cl)c3F)cc3ccoc23)c1` (relative stereo) [Compound 376e, 7-(3-(aminomethyl)phenyl)-N-((trans)-2-((3-chloro-2-fluorobenzyl)carbamoyl)cyclopentyl)benzofuran-5-carboxamide], the pIC50 was more than 6.00.

As for `Cc1cc2cc(COc3ccccc3CC(=O)O)cc(-c3cccc(CN)c3F)c2o1` [Compound 92b, 2-(2-((7-(3-(aminomethyl)-2-fluorophenyl)-2-methylbenzofuran-5-yl)methoxy)phenyl)acetic acid], the pIC50 is more than 6.00.

As to `NCc1ccc(-c2cc(CC(=O)N3[C@@H]4C[C@@H]4C[C@H]3C(=O)NCc3cccc(Cl)c3F)cc3ccoc23)cc1` [Compound 275e, (1R,3S,5R)-2-(2-(7-(4-(aminomethyl)phenyl)benzofuran-5-yl)acetyl)-N-(3-chloro-2-fluorobenzyl)-2-azabicyclo[3.1.0]hexane-3-carboxamide], the pIC50 was 5.00 to 6.00.

Regarding `Cc1ccc(CC(=O)O)c(OCc2cc(-c3cccc(CN)c3)c3occc3c2)c1` [Compound 202c, 2-(2-((7-(3-(aminomethyl)phenyl)benzofuran-5-yl)methoxy)-4-methylphenyl)acetic acid], the pIC50 was more than 6.00.

`NCc1cccc(-c2cc(CC(=O)N3CCC[C@H]3C(=O)NCc3cccc(Cl)c3F)cc3ccoc23)c1` [Compound 277e, (S)-1-(2-(7-(3-(aminomethyl)phenyl)benzofuran-5-yl)acetyl)-N-(3-chloro-2-fluorobenzyl)pyrrolidine-2-carboxamide]: the pIC50 is more than 6.00.

As for `NCc1cccc(-c2cc(C(=O)Nc3ccccc3CC(=O)O)c3ncnn3c2)c1` [Compound 20e, 2-(2-(6-(3-(aminomethyl)phenyl)-[1,2,4]triazolo[1,5-a]pyridine-8-carboxamido)phenyl)acetic acid], the negative-log IC50 (pIC50) was less than 5.00.

On to `CC(=O)Nc1ccc(CC(=O)O)c(OCc2cc(-c3ccnc(CN)c3F)c3occc3c2)c1` [Compound 438c, 2-(4-acetamido-2-((7-(2-(aminomethyl)-3-fluoropyridin-4-yl)benzofuran-5-yl)methoxy)phenyl)acetic acid], for which the pIC50 was more than 6.00.

With `Cc1c(COc2ccccc2CC(=O)O)cc2ccoc2c1-c1cccc(CN)c1` [Compound 413m, 2-(2-((7-(3-(aminomethyl)phenyl)-6-methylbenzofuran-5-yl)methoxy)phenyl)acetic acid], the negative-log IC50 (pIC50) is more than 6.00.

For the origin of these results see patent US11370774B2, “Substituted benzofuran, benzopyrrole, benzothiophene, and structurally related complement inhibitors” (BioCryst Pharmaceuticals, Inc., priority 2018, dated 2022).
